# Laboratory results: patent US11542271B2, “Fused heteroaromatic-aniline compounds for treatment of dermal disorders” (NFlection Therapeutics, Inc., priority 2017, dated 2023)
# Like-named read-outs stand apart in the source and are kept apart here.
# Tests used:
# [1] = S9 Stability Assay, human liver S9 fraction; format: in vitro ADME; settings: for half-life at 1 μM / microsomal CLint at 1 μM: human liver S9 fraction, pH 7.4
# Description: Compounds were assessed for metabolic stability in human skin by assessing their rate of disappearance from human S9 skin fraction. Similarly, compounds were assessed for metabolic stability in human liver by assessing their rate of disappearance from human S9 liver fraction. The protocol below can be used to assess the difference between skin and hepatic metabolism.
# The assay was carried out in 96-well microtiter plates at 37° C. Reaction mixtures (25 μL) contained a final concentration of 1 μM test compound, 2 mg/mL liver or skin S9 protein, and 1 mM NADPH in buffer (100 mM potassium phosphate, pH 7.4 buffer with 1 mM EDTA, 3 mM MgCl2). At each of the time points (0, 15, 30, and 60 minutes), 150 μL of quench solution (100% acetonitrile with 0.1% formic acid) with internal standard was transferred to each well. Besides the zero minute controls, mixtures containing the same components except the NADPH were also prepared as the negative control. Verapamil or testosterone was included as a positive control to verify assay performance. Plates were sealed and centrifuged at 4° C. for 15 minutes at 4000 rpm. The supernatant was transferred to fresh plates for LC/MS/MS analysis.
# All samples were analyzed on LC/MS/MS using an AB Sciex API 4000 instrument, coupled to a Shimadzu LC-20AD LC Pump system. Analytical samples were separated using a Waters Atlantis T3 dC18 reverse phase HPLC column (20 mm×2.1 mm) at a flow rate of 0.5 mL/min. The mobile phase consisted of 0.1% formic acid in water (solvent A) and 0.1% formic acid in 100% acetonitrile (solvent B).
# The extent of metabolism was calculated as the disappearance of the test compound, compared to the 0-min control reaction incubations. Initial rates were calculated for the compound concentration and used to determine t1/2 values and subsequently, the intrinsic clearance, CLint=(0.693) (1/t1/2 (min)) (mL incubation/mg of S9 protein).
# A375 cells = test: A375 (BRAF) GI50 cell-based assay (Cell Titer-Glo); settings: Homo sapiens, A-375, 72 hours, read-out: Assay 2: A375 (BRAF) GI50
# Description: (§1) Alternatively, the following procedure can be used to measure cell-based activity. Test compounds were dissolved in DMSO in 10 mM stock. Cell Titer-Glo® 2.0 Luminescent cell viability assay reagent was purchased from Promega (Madison, Wis.). A375 and HCT116 cell lines were purchased from American Type Culture Collection (Manassas, Va.). For A375 cells, cell culture media was DMEM+10% FBS. For HCT116 cells, cell culture media was McCoy's 5A+10% FBS. All media were supplemented with 100 μg/mL of penicillin, and 100 μg/mL of streptomycin. Cultures were maintained at 37° C. in a humidified atmosphere of 5% CO2 and 95% air.
# (§2) Test compounds were diluted in DMSO solution with 10-dose and 3-fold dilutions in a source plate starting at 10 mM. […] Luminescence was recorded by Envision 2104 Multilabel Reader (PerkinElmer, Santa Clara, Calif.). The number of viable cells in culture was determined based on quantitation of the ATP present in each culture well. […] Luminescence was recorded by Envision 2104 Multilabel Reader (PerkinElmer, Santa Clara, Calif.). The number of viable cells in culture was determined based on quantitation of the ATP present in each culture well. […] All parameters in the equation were calculated by GraphPad Prism 4 program. […] Accordingly, GI50 is the value of 10^X, where X was calculated by the Curve Fitting Equation when Y=50 using Excel.
# MAP2K1 (MEK1) = biological target: T1, MAP2K1 (MEK1) (Homo sapiens, UniProt Q02750); test: MEK Inhibition Assay (Biological Example 1b, Z'-LYTE); settings: Biological Example 1b (compounds 1, 3, 5, 7-8); read-out: Assay 1: biochemical MEK IC50
# T1 construct: purchased ThermoFisher
# Description: MEK1 inhibitory activity of compounds were tested using the following procedure (protocol available at thermofisher.com/content/dam/LifeTech/migration/files/drug-discovery/pdfs.par.60256.file.dat/20130430%20ssbk%20customer%20protocol%20and%20assay%20conditions.pdf). The Z′-LYTE biochemical assay (ThermoFisher) employs a fluorescence-based, coupled-enzyme format and is based on the differential sensitivity of phosphorylated and non-phosphorylated peptides to proteolytic cleavage.
# Test compounds in 100% DMSO were screened in 1% DMSO (final) in the well. For 10 point titrations, 3-fold serial dilutions are conducted from the starting concentration of 30 μM.
# After the 1 hour incubation, 5 μL of a 1:1024 dilution of Development Reagent A (available from Invitrogen, catalog no. PV3295) was added.
# ATP solutions were diluted to a 4× working concentration in Kinase Buffer (50 mM HEPES pH 7.5, 0.01% BRIJ-35, 10 mM MgCl2, 1 mM EGTA). ATP Km apparent was previously determined using a Z′-LYTE assay. The Development Reagent was diluted in Development Buffer (available from Invitrogen, catalog no. P3127).
# Assay Protocol: 2.5 μL of 4× test compound or 100 nL of 100× Test Compound plus 2.4 μL Kinase Buffer, 5 μL of the 2× Peptide/Kinase Mixture, 2.5 μL of 4×ATP Solution were added to the plates and placed on a shake plate for 30-seconds. The kinase reaction was allowed to proceed for 60-minute at room temperature, before 5 μL of Development Reagent Solution was added, and the mixture agitated for 30-seconds on a shake plate. The mixture was incubated for 60-minute at room temperature. Fluorescence was measured using a plate reader and the data were analyzed.
# This control yielded 100% cleaved peptide in the Development Reaction. The 100% Phosphorylation Control, which consisted of a synthetically phosphorylated peptide of the same sequence as the peptide substrate, was designed to allow for the calculation of percent phosphorylation. This control yielded a very low percentage of cleaved peptide in the Development Reaction. The 0% Phosphorylation and 100% Phosphorylation Controls allow for the calculation of the percent phosphorylation achieved in a specific reaction well.
# The minimum emission ratio in a screen was established by the 0% Inhibition Control, which contained active kinase. This control was designed to produce a 10-50% phosphorylated peptide in the Kinase Reaction. Cascade assays may produce up to 70% phosphorylated peptide.
# A known inhibitor control standard curve, 10 point titration, was run for each individual kinase on the same plate as the kinase to ensure the kinase was inhibited within an expected IC50 range previously determined.
# The following controls are prepared for each concentration of Test Compound assayed. […] The expected value for a non-interfering compound should be 100%. Any value outside of 90% to 110% was flagged. […] The expected value for a non-fluorescence compound should be 0%. Any value >20% was flagged.
# The data in Table A was calculated. XLfit from IDBS was used. The dose response curve was curve fit to model number 205 (sigmoidal dose-response model).
# HCT116 cells = test: HCT116 (Kras) GI50 cell-based assay (Cell Titer-Glo); settings: Homo sapiens, HCT-116, 72 hours, read-out: Assay 3: HCT116 (Kras) GI50
# Description: as §1, §2
# MEK1 = biological target: T2, MEK1 (Homo sapiens, UniProt Q02750); test: MEK Inhibition Assay (Biological Example 1a, 33P-ATP, P81 filter-binding); settings: Biological Example 1a (used for compounds 2 and 6); read-out: Assay 1: biochemical MEK IC50
# T2 construct: N-terminal His-tagged recombinant human full length protein, expressed in insect cells; His (N); purchased Invitrogen PV3303; host or cells: insect cells
# Description: MEK1 inhibitory activity of compounds were tested using the following procedure.
# • Reaction buffer: 20 mM Hepes (pH 7.5), 10 mM MgCl2, 1 mM EGTA, 0.02% Brij35, 0.02 mg/mL bovine serum albumin, 0.1 mM Na3V04, 2 mM DTT, 1% DMSO • Enzyme: MEK1, Invitrogen cat #PV3303 • N-terminal His-tagged recombinant human full length protein, expressed in insect cells. Activated in vitro by RAF1. MW=49.2 kDa, GenBank Accession No. NP_002746. • Substrate: 5 μM ERK2 (K52R), • Kinase-dead mutant, (GenBank Accession No. NM_0011949), aa2-358 with N-terminal His6 tag, MW=43.63 kDa, expressed in E. coli.
# The substrate was prepared in freshly prepared Reaction Buffer. The kinase was delivered into the substrate solution and gently mixed. Test compounds were delivered in 100% DMSO into the kinase reaction mixture by Acoustic technology (Echo550; nanoliter range), and incubated for 20 min at room temperature. ^33P-ATP was delivered into the reaction mixture to initiate the reaction. The reaction mixture was incubated for 2 hours at room temperature. Kinase activity was detected by P81 filter-binding method.
# [2] = human liver S9, unit min printed in b472 and Table 1, not in this table, read-out: Assay 4: human liver S9 half-life
# [3] = human, read-out: Assay 5: human liver S9 intrinsic clearance value (μL/min/mg protein)
# T1 sequence (Q02750 whole entry): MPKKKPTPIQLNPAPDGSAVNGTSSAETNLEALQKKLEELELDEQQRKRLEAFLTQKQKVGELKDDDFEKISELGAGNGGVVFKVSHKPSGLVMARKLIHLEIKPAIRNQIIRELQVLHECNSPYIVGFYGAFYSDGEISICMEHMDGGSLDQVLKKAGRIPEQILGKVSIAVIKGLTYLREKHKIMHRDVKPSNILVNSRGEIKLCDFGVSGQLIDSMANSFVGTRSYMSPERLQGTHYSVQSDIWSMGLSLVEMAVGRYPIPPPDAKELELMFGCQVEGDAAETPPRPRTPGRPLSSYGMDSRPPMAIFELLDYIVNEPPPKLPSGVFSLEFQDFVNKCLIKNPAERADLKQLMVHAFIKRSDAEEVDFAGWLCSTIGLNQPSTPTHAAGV
# T2 sequence (Q02750 whole entry): as above
Compound,"half-life at 1 μM [1, 2]","microsomal CLint at 1 μM [1, 3]",GI50 (A375 cells),IC50 (MAP2K1 (MEK1)),GI50 (HCT116 cells),IC50 (MEK1),Assay 5: human liver S9 intrinsic clearance value (μL/min/mg protein) ([1]; human liver S9),"half-life at 1 μM ([1]; Table 1, 1 μM test compound, 2 mg/mL S9 protein, NADPH, read-out: Liver S9 t1/2)","microsomal CLint at 1 μM ([1]; Table 1, read-out: CLint (μL/min/mg protein))"
"C#Cc1ccc(Nc2sc3ncccc3c2C(=O)NOCCO)c(F)c1 [Ex. 1, 2-((4-ethynyl-2-fluorophenyl)amino)-N-(2-hydroxyethoxy)thieno[2,3-b]pyridine-3-carboxamide]",29 min,11.8 µL/min/mg,141 nM,1030 nM,348 nM,–,–,–,–
"CSc1ccc(Nc2sc3ncccc3c2C(=O)NOCCO)c(F)c1 [Ex. 2, 2-((2-fluoro-4-(methylthio)phenyl)amino)-N-(2-hydroxyethoxy)thieno[2,3-b]pyridine-3-carboxamide]",16 min,21.2 µL/min/mg,145 nM,–,257 nM,915 nM,–,–,–
"O=C(NOCCO)c1c(Nc2ccc(I)cc2F)sc2ncccc12 [Ex. 3, 2-((2-Fluoro-4-iodophenyl)amino)-N-(2-hydroxyethoxy)thieno[2,3-b]pyridine-3-carboxamide]",–,–,–,74 nM,–,–,13.35 μL/min/mg protein,26 min,13.3 µL/min/mg
"Cc1ccc2c(C(=O)NOCCO)c(Nc3ccc(I)cc3F)sc2n1 [Ex. 5, 2-((2-Fluoro-4-iodophenyl)amino)-N-(2-hydroxyethoxy)-6-methylthieno[2,3-b]pyridine-3-carboxamide]",54 min,6.36 µL/min/mg,–,256 nM,–,–,–,–,–
"COc1ccc2c(C(=O)NOCCO)c(Nc3ccc(I)cc3F)sc2n1 [Ex. 6, 2-((2-fluoro-4-iodophenyl)amino)-N-(2-hydroxyethoxy)-6-methoxythieno[2,3-b]pyridine-3-carboxamide]",–,–,–,–,–,2910 nM,–,–,–
"COc1cnc2sc(Nc3ccc(I)cc3F)c(C(=O)NOCCO)c2c1 [Ex. 7, 2-((2-Fluoro-4-iodophenyl)amino)-N-(2-hydroxyethoxy)-5-methoxythieno[2,3-b]pyridine-3-carboxamide]",68 min,5.1 µL/min/mg,–,150 nM,–,–,–,–,–
